Results published in patent US6432881B1 (dated 2002).

melting point: 82 °C
Structure (SMILES): Cn1nccc1OCc1c(S(C)(=O)=O)ccc(C(=O)C2C(=O)CC(C)(C)CC2=O)c1Cl (hydrate or solvate)
